Patent US4783462A, “3(2H)pyridazinone, and anti-allergic agent containing it” (Nissan Chemical Industries Ltd., priority 1985, dated 1988)

Each molecule was assayed on LTC4 (assay: Antagonism in isolated guinea-pig trachea, Test method (i) (Table 3, given as LTC4 antagonism)). Details: Cavia porcellus, 5 min, test compound 10^-5 g/ml, given as LTC4 antagonisms.
Assay type: cell-based
Protocol: (i) LTC4 and LTD4 antagonisms in guinea-pig trachea
Antagonisms for LTC4 and LTD4 were determined in isolated guinea-pig trachea prepared as spiral strip. Tracheal preparations were suspended under 1 g tension in 10 ml organ baths and they were incubated for 1 hr prior to use. Contractile responses to LTC4 (2×10^-8 g/ml) and LTD4 (2×10^-8 g/ml) were obtained after the maximal response to histamine (10^-4 M). Test compounds dissolved in 100% dimethyl sulfoxide were added to the organ baths (final concentration of 10^-5 g/ml or 10^-6 g/ml) 5 min prior to LTC4 and LTD4 addition, and then contractile responses to LTC4 and LTD4 were compared with those of control which was obtained from a paired trachea in the absence of test compounds. LTC4 - and LTD4 -induced contractions were expressed as a percentage of the maximal response to histamine. The antagonism was determined as follows:
Antagonism (%)=(1.0-% contraction in test/% contraction in […]
CCCc1cc(-c2nnn[nH]2)ccc1OCCCNc1cnn(C(C)(C)C)c(=O)c1Cl [Compound No. 2, 4-Chloro-5-{3-[2-n-propyl-4-(1H-tetrazol-5-ylphenoxy)]propylamino}-2-t-butyl-3(2H)pyridazinone] showed an inhibition at 10 µg/mL of 15%.
CCCc1cc(C(=O)OC)ccc1OCCCNc1cnn(C(C)(C)C)c(=O)c1Cl [Compound No. 3] was tested, and the inhibition at 10 µg/mL was 28%.
Work on CCOC(=O)c1ccc(OCCCNc2cnn(C(C)(C)C)c(=O)c2Cl)c(Cl)c1 [Compound No. 8] yielded an inhibition at 10 µg/mL of 32%.
Molecule CC(C)(C)n1ncc(NCCCOc2ccc(C(=O)O)cc2Cl)c(Cl)c1=O [Compound No. 9] has an inhibition at 10 µg/mL of 14%.
In the case of CCn1ncc(NCCCOc2ccc(C(=O)O)cc2Cl)c(Cl)c1=O [Compound No. 11], the inhibition at 10 µg/mL is reported as 13%.
Work on CCCc1cc(C(=O)O)ccc1OCCCNc1cnn(C)c(=O)c1Cl [Compound No. 12] yielded an inhibition at 10 µg/mL of 35%.
Cc1ccc(S(=O)(=O)OCCCNc2cnn(C(C)(C)C)c(=O)c2Cl)cc1 [Compound No. 15, 4-Chloro-5-[3-(4-methylphenylsulfonyloxy)propylamino]-2-t-butyl-3(2H)pyridazinone] was tested, and the inhibition at 10 µg/mL was 40%.
For COc1ccc(CCNc2cnn(C(C)(C)C)c(=O)c2Cl)cc1OC [Compound No. 16], the inhibition at 10 µg/mL was 31%.
With CCn1ncc(NCCCOC(=O)c2ccc(Cl)cc2)c(Cl)c1=O [Compound No. 17] the inhibition at 10 µg/mL was 45%.
CCn1ncc(NCCc2ccc(OC)c(OC)c2)c(Cl)c1=O [Compound No. 18] showed an inhibition at 10 µg/mL of 20%.
In the case of CCOC(=O)c1ccc(OCCCOc2cnn(CC)c(=O)c2Cl)c(Cl)c1 [Compound No. 30, 4-Chloro-5-[3-(2-chloro-4-ethoxycarbonylphenoxy)propoxy]-2-ethyl-3(2H)pyridazinone], the inhibition at 10 µg/mL is reported as 40%.
CCCc1c(OCCCOc2cnn(C(C)(C)C)c(=O)c2Cl)ccc(C(C)=O)c1O [Compound No. 37, 4-Chloro-5-[3-(2-n-propyl-3-hydroxy-4-acetylphenoxy)propoxy]-2-t-butyl-3(2H)pyridazinone] gave an inhibition at 10 µg/mL of 40%.
With CCCc1cc(C(=O)OCC)ccc1OCCCNc1cnn(C(C)C)c(=O)c1 [Compound No. 63, 5-[3-(2-n-propyl-4-ethoxycarbonylphenoxy)propylamino]-2-i-propyl-3(2H)pyridazinone] the inhibition at 10 µg/mL was 54%.
For CCCc1cc(C(=O)OC)ccc1OCCCN(C)c1cnn(C(C)C)c(=O)c1Cl [Compound No. 73, 4-Choloro-5-[3-(2-n-propyl-4-methoxycarbonylphenoxy)propyl-N-methylamino]-2-i-propyl-3(2H)pyridazinone], the inhibition at 10 µg/mL was 48%.
Molecule CCc1cc(C=O)ccc1OCCCNc1cnn(CC)c(=O)c1Cl [Compound No. 92, 4-chloro-5-[3-(2-ethyl-4-formylphenoxy)propylamino]-2-ethyl-3(2H) pyridazinone] has an inhibition at 10 µg/mL of 100%.
Molecule CCc1cc(C=CC(=O)O)ccc1OCCCNc1cnn(CC)c(=O)c1Cl [Compound No. 93, 4-Chloro-5-{3-[2-ethyl-4-(2-carboxyethenyl)phenoxy]propylamino}-2-ethyl-3(2H)pyridazinone] has an inhibition at 10 µg/mL of 79%.
With CCCc1cc(O)ccc1OCCCNc1cnn(CC)c(=O)c1Cl [Compound No. 108, 4-Chloro-5-[3-(2-n-propyl-4-hydroxyphenoxy)propylamino]-2-ethyl-3(2H)pyridazinone] the inhibition at 10 µg/mL was 94%.
With Cc1ccc(S(=O)(=O)OCC(O)CNc2cnn(C(C)C)c(=O)c2Cl)cc1 (stereo not drawn) [Compound No. 143, 4-Chloro-5-[3-(4-methylphenylsulfonyloxy)-2-hydroxypropylamino]-2-i-propyl-3(2H)pyridazinone] the inhibition at 10 µg/mL was 26%.
With CCCc1cc(C#N)ccc1SCC(O)CNc1cnn(C(C)C)c(=O)c1Cl (stereo not drawn) [Compound No. 153, 4-Chloro-5-[3-(2-n-propyl-4-cyanothiophenoxy)-2-hydroxypropylamino]-2-i-propyl-3(2H)pyridazinone] the inhibition at 10 µg/mL was 64%.
Work on CCCc1cc(C(=O)O)ccc1SCC(O)CNc1cnn(C(C)C)c(=O)c1Cl (stereo not drawn) [Compound No. 154, 4-Chloro-5-[3-(2-n-propyl-4-carboxythiophenoxy)-2-hydroxypropylamino]-2-i-propyl-3(2H)pyridazinone] yielded an inhibition at 10 µg/mL of 20%.
For CCCc1cc(C(=O)OC)ccc1SCC(O)CNc1cnn(C(C)C)c(=O)c1Cl (stereo not drawn) [Compound No. 155, 4-Chloro-5-[3-(2-n-propyl-4-methoxycarbonylthiophenoxy)-2-hydroxypropylamino]-2-i-propyl-3(2H) pyridazinone], the inhibition at 10 µg/mL was 55%.
With CCCc1cc(C#N)ccc1OCC(CN(C)c1cnn(C(C)C)c(=O)c1Cl)OC (stereo not drawn) [Compound No. 157, 4-Chloro-5-[3-(2-n-propyl-4-cyanophenoxv)-2-methoxypropyl-N-methylamino]-2-i-propyl-3(2H)pyridazinone] the inhibition at 10 µg/mL was 62%.
With COC(=O)CCC(=O)c1ccc(OCC(O)CNc2cnn(C(C)C)c(=O)c2Cl)cc1 (stereo not drawn) [Compound No. 166, 4-chloro-5-{3-[4-(β-methoxycarbonylpropyonyl)phenoxy]-2-hydroxypropylamino}-2-i-propyl-3(2H) pyridazinone] the inhibition at 10 µg/mL was 25%.
COC(=O)CC(C)C(=O)c1ccc(OCC(CN(C)c2cnn(C(C)C)c(=O)c2Cl)OC)cc1 (stereo not drawn) [Compound No. 167, 4-Chloro-5-{3-[4-(β-methoxycarbonyl-α-methylpropionyl)phenoxy]-2-methoxypropyl-N-methylamino}-2-i-propyl-3(2H)pyridazinone] gave an inhibition at 10 µg/mL of 30%.
CCCc1cc(C#N)ccc1OCC(O)COc1cnn(C(C)C)c(=O)c1Cl (stereo not drawn) [Compound No. 171, 4-Chloro-5-[3-(2-n-propyl-4-cyanophenoxy)-2-hydroxypropoxy]-2-i-propyl-3(2H)pyridazinone] showed an inhibition at 10 µg/mL of 66%.
Work on CCCc1cc(C#N)ccc1OCC(COc1cnn(C(C)C)c(=O)c1Cl)OC (stereo not drawn) [Compound No. 172, 4-Chloro-5-[3-(2-n-propyl-4-cyanophenoxy)-2-methoxypropoxy]-2-i-propyl-3(2H)pyridazinone] yielded an inhibition at 10 µg/mL of 79%.
CCCc1cc(C(=O)O)ccc1OCCCNc1cnn(C(C)(C)C)c(=O)c1Cl [compound 5] gave an inhibition at 10 µg/mL of 33%.
Work on COc1ccc(CCNc2cnn(C(C)(C)C)c(=O)c2Cl)cc1 [compound 19] yielded an inhibition at 10 µg/mL of 60%.
CCCc1c(OCCCOc2cnn(C(C)(C)C)c(=O)c2Cl)ccc2c(=O)cc(C(=O)O)oc12 [compound 24] showed an inhibition at 10 µg/mL of 40%.
CCCc1c(OCCCOc2cnn(C(C)(C)C)c(=O)c2CC)ccc2c(=O)cc(C(=O)OCC)oc12 [compound 26] was tested, and the inhibition at 10 µg/mL was 15%.
CCn1ncc(OCCCOc2ccc(C(=O)O)cc2Cl)c(Cl)c1=O [compound 31] showed an inhibition at 10 µg/mL of 19%.
Work on CCOC(=O)c1ccc(OCCCOc2cnn(C(C)(C)C)c(=O)c2Cl)c(Cl)c1 [compound 32] yielded an inhibition at 10 µg/mL of 29%.
For CC(C)(C)n1ncc(OCCCOc2ccc(C(=O)O)cc2Cl)c(Cl)c1=O [compound 33], the inhibition at 10 µg/mL was 15%.
COc1cccc(OCCCOc2cnn(C(C)(C)C)c(=O)c2Br)c1 [compound 34] showed an inhibition at 10 µg/mL of 61%.
CCCc1cc(-c2nn[nH]n2)ccc1OCCCNc1cnn(CC)c(=O)c1Cl [compound 48] showed an inhibition at 10 µg/mL of 36%.
CCOC(=O)c1ccc(OCCCNc2cnn(CC)c(=O)c2Cl)c(OC)c1 [compound 49] gave an inhibition at 10 µg/mL of 57%.
Molecule CCn1ncc(NCCCOc2ccccc2OC)c(Cl)c1=O [compound 50] has an inhibition at 10 µg/mL of 35%.
For CCn1ncc(NCCCOc2ccc(C(=O)O)cc2OC)c(Cl)c1=O [compound 52], the inhibition at 10 µg/mL was 23%.
CCOc1ccc(OCCCNc2cnn(CC)c(=O)c2Cl)cc1 [compound 53] showed an inhibition at 10 µg/mL of 59%.
For CCn1ncc(NCCCOc2ccc(C)cc2)c(Cl)c1=O [compound 54], the inhibition at 10 µg/mL was 64%.
Work on CCn1ncc(NCCCOc2ccc(OC)cc2)c(Cl)c1=O [compound 56] yielded an inhibition at 10 µg/mL of 62%.
Molecule CCn1ncc(NCCCOc2ccccc2C)c(Cl)c1=O [compound 57] has an inhibition at 10 µg/mL of 83%.
With COc1ccc(OCCCNc2cnn(C(C)C)c(=O)c2Cl)cc1 [compound 58] the inhibition at 10 µg/mL was 88%.
COc1ccccc1OCCCNc1cnn(C(C)C)c(=O)c1Cl [compound 59] showed an inhibition at 10 µg/mL of 82%.
In the case of CCCc1cc(C#N)ccc1SCCCNc1cnn(C(C)C)c(=O)c1Cl [compound 61], the inhibition at 10 µg/mL is reported as 73%.
CCCc1cc(C(=O)O)ccc1SCCCNc1cnn(C(C)C)c(=O)c1Cl [compound 62] gave an inhibition at 10 µg/mL of 57%.
For CC(C)n1ncc(NCCc2ccc(O)cc2)c(Cl)c1=O [compound 66], the inhibition at 10 µg/mL was 69%.
CCCc1cc(-c2nnn[nH]2)ccc1SCCCNc1cnn(C(C)C)c(=O)c1Cl [compound 68] gave an inhibition at 10 µg/mL of 33%.
With C=CCc1cc(C(=O)O)ccc1OCCCNc1cnn(C(C)C)c(=O)c1Cl [compound 70] the inhibition at 10 µg/mL was 65%.
CC(C)n1ncc(NCCCOc2ccc(C(=O)CCC(=O)O)cc2)c(Cl)c1=O [compound 75] showed an inhibition at 10 µg/mL of 16%.
With COC(=O)CCC(=O)c1ccc(OCCCNc2cnn(C(C)C)c(=O)c2Cl)cc1 [compound 76] the inhibition at 10 µg/mL was 57%.
COC(=O)CCC(=O)c1ccc(OCCCN(C)c2cnn(C(C)C)c(=O)c2Cl)cc1 [compound 77] was tested, and the inhibition at 10 µg/mL was 17%.
In the case of CC(C)n1ncc(N(C)CCCOc2ccc(C(=O)CCC(=O)O)cc2)c(Cl)c1=O [compound 78], the inhibition at 10 µg/mL is reported as 32%.
For COC(=O)c1ccc(OCCCOc2cnn(C(C)C)c(=O)c2Cl)c(C(C)C)c1 [compound 79], the inhibition at 10 µg/mL was 58%.
C=CCc1cc(C(=O)OC)ccc1OCCCNc1cnn(CC)c(=O)c1Cl [compound 81] was tested, and the inhibition at 10 µg/mL was 80%.
CCCc1cc(C(=O)O)ccc1OCCCOc1cnn(CC)c(=O)c1Cl [compound 83] showed an inhibition at 10 µg/mL of 46%.
For CCCc1cc(C(=O)OC)ccc1OCCCOc1cnn(CC)c(=O)c1Cl [compound 84], the inhibition at 10 µg/mL was 85%.
